These are literature values, as cited in patent US20230320397A1, “EXTRACTS FOR HEALTH SUPPLEMENTS” (EXTENDED LONGEVITY, priority 2022, published 2023).

The conditions of the data set: by the use of heat.

With `COc1cc(/C=C/C(=O)CC(=O)/C=C/c2ccc(O)c(OC)c2)ccc1O` [curcumin], the increased solubility is reported as 12 fold.
